Data taken from ChEMBL document CHEMBL6134802, “A benzoxazolyl urea inhibits VraS and enhances antimicrobials against vancomycin intermediate-resistant Staphylococcus aureus” (Bioorg Med Chem Lett, 2025).
Active and inactive are the calls of the source. The rule behind the calls is not given here.

Legend:
Staphylococcus aureus [1] = experiment: Antibacterial activity against vancomycin-intermediate resistant Staphylococcus aureus Mu50 assessed as enhancement factor at 50 uM in presence of oxacillin (reference value: 256 ug/ml); format: functional
Staphylococcus aureus [2] = experiment: Antibacterial activity against vancomycin-intermediate resistant Staphylococcus aureus Mu50 assessed as enhancement factor at 50 uM in presence of vancomycin (reference value: 4 ug/ml); format: functional
Staphylococcus aureus [3] = experiment: Suppression of vancomycin-induced vraSR gene transcription in vancomycin-intermediate resistant Staphylococcus aureus Mu50 assessed as decrease in vraSR transcript level by RT-qPCR analysis; format: functional, organism-based
Staphylococcus aureus [4] = experiment: Synergistic antibacterial activity against vancomycin-intermediate resistant Staphylococcus aureus Mu50 assessed as microbial growth at 50 uM in presence of oxacillin at 2 to 4 ug/ml by checkerboard assay; format: functional, organism-based
Staphylococcus aureus [5] = experiment: Antibacterial activity against methicillin-resistant Staphylococcus aureus ATCC 33592 assessed as enhancement factor at 50 uM in presence of oxacillin (reference value: 128 ug/ml); format: functional
Staphylococcus aureus [6] = experiment: Antibacterial activity against methicillin-resistant Staphylococcus aureus BAA 41 assessed as enhancement factor at 50 uM in presence of oxacillin (reference value: 256 ug/ml); format: functional
Staphylococcus aureus [7] = experiment: Antibacterial activity against methicillin-resistant Staphylococcus aureus BAA-2094 assessed as enhancement factor at 50 uM in presence of oxacillin (reference value: 8 to 16 ug/ml); format: functional
Staphylococcus aureus [8] = experiment: Antibacterial activity against vancomycin-intermediate resistant Staphylococcus aureus Mu50 assessed as fold reduction at 50 uM in presence of penicillin G; format: functional
Staphylococcus aureus [9] = experiment: Antibacterial activity against vancomycin-intermediate resistant Staphylococcus aureus Mu50 assessed as enhancement factor at 50 uM in presence of penicillin G (reference value: 16 ug/ml); format: functional
Staphylococcus aureus [10] = experiment: Antibacterial activity against methicillin-resistant Staphylococcus aureus ATCC 33592 assessed as fold reduction at 50 uM in presence of vancomycin; format: functional
Staphylococcus aureus [11] = experiment: Antibacterial activity against methicillin-resistant Staphylococcus aureus BAA 42 assessed as enhancement factor at 50 uM in presence of vancomycin (reference value: 1 ug/ml); format: functional
Staphylococcus aureus [12] = experiment: Suppression of oxacillin-induced pbp2 gene transcription in vancomycin-intermediate resistant Staphylococcus aureus Mu50 assessed as decrease in pbp2 transcript level by RT-qPCR analysis; format: functional, organism-based
Staphylococcus aureus [13] = experiment: Antibacterial activity against methicillin-resistant Staphylococcus aureus BAA-2094 assessed as enhancement factor at 50 uM in presence of vancomycin (reference value: 2 ug/ml); format: functional
Staphylococcus aureus [14] = experiment: Antibacterial activity against methicillin-resistant Staphylococcus aureus USA 300 assessed as fold reduction at 50 uM in presence of vancomycin; format: functional
Staphylococcus aureus [15] = experiment: Antibacterial activity against methicillin-resistant Staphylococcus aureus ATCC 33592 assessed as enhancement factor at 50 uM in presence of vancomycin (reference value: 2 ug/ml); format: functional
Staphylococcus aureus [16] = experiment: Suppression of vancomycin-induced mecA gene transcription in vancomycin-intermediate resistant Staphylococcus aureus Mu50 assessed as decrease in mecA transcript level by RT-qPCR analysis; format: functional, organism-based
Sensor protein VraS = target: T1, Sensor protein VraS (Staphylococcus aureus (strain N315), UniProt Q99SZ7); experiment: Inhibition of GST tagged VraS ATPase activity in vancomycin-intermediate resistant Staphylococcus aureus by kinase-coupled assay
T1 sequence (Q99SZ7 whole entry): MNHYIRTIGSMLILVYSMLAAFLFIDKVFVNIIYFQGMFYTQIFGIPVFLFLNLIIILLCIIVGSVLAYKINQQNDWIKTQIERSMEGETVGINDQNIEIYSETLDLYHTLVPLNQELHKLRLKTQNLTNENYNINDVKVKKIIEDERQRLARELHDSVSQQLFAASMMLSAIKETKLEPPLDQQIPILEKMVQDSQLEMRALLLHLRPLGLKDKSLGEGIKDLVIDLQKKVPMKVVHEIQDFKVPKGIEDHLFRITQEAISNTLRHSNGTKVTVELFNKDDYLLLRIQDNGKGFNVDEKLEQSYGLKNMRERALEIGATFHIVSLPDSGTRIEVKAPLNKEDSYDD

Staphylococcus aureus [17] = experiment: Antibacterial activity against methicillin-resistant Staphylococcus aureus USA 300 assessed as enhancement factor at 50 uM in presence of oxacillin (reference value: 16 ug/ml); format: functional
Staphylococcus aureus [18] = experiment: Antibacterial activity against methicillin-resistant Staphylococcus aureus BAA-1683 assessed as enhancement factor at 50 uM in presence of oxacillin (reference value: 32 ug/ml); format: functional
Staphylococcus aureus [19] = experiment: Synergistic antibacterial activity against vancomycin-intermediate resistant Staphylococcus aureus Mu50 assessed as fractional inhibitory concentration index at […] in presence of vancomycin by checkerboard assay; format: functional
Staphylococcus aureus [20] = experiment: Antibacterial activity against methicillin-resistant Staphylococcus aureus USA 300 assessed as enhancement factor at 50 uM in presence of penicillin G (reference value: 128 ug/ml); format: functional
Staphylococcus aureus [21] = experiment: Antibacterial activity against methicillin-resistant Staphylococcus aureus BAA 41 assessed as enhancement factor at 50 uM in presence of vancomycin (reference value: 2 ug/ml); format: functional
Staphylococcus aureus [22] = experiment: Synergistic antibacterial activity against vancomycin-intermediate resistant Staphylococcus aureus Mu50 assessed as fractional inhibitory concentration index at >400 times MIC in presence of oxacillin by checkerboard assay; format: functional
Staphylococcus aureus [23] = experiment: Synergistic antibacterial activity against vancomycin-intermediate resistant Staphylococcus aureus Mu50 assessed as microbial growth at 50 uM in presence of vancomycin at 0.125 ug/ml by checkerboard assay; format: functional, organism-based
Staphylococcus aureus [24] = experiment: Antibacterial activity against vancomycin-intermediate resistant Staphylococcus aureus Mu50 assessed as fold reduction at 50 uM in presence of oxacillin; format: functional
Staphylococcus aureus [25] = experiment: Antibacterial activity against vancomycin-intermediate resistant Staphylococcus aureus Mu50 assessed as fold reduction at 50 uM in presence of vancomycin; format: functional
Staphylococcus aureus [26] = experiment: Antibacterial activity against methicillin-resistant Staphylococcus aureus BAA 42 assessed as enhancement factor at 50 uM in presence of oxacillin (reference value: 64 ug/ml); format: functional
Staphylococcus aureus [27] = experiment: Synergistic antibacterial activity against vancomycin-intermediate resistant Staphylococcus aureus Mu50 assessed as fractional inhibitory concentration index at >400 times MIC in presence of penicillin G by checkerboard assay; format: functional
Staphylococcus aureus [28] = experiment: Antibacterial activity against methicillin-resistant Staphylococcus aureus ATCC 33592 assessed as fold reduction at 50 uM in presence of oxacillin (reference value: 128 ug/ml); format: functional
[29] = Cytotoxicity against MDCK cells assessed as reduction in cell viability incubated for 24 hrs by MTT assay; format: toxicity, cell-based, Canis lupus familiaris; details: dog
Staphylococcus aureus [30] = experiment: Antibacterial activity against methicillin-resistant Staphylococcus aureus USA 300(BAA-1556) assessed as fold reduction in presence of vancomycin; format: functional
Staphylococcus aureus [31] = experiment: Synergistic antibacterial activity against vancomycin-intermediate resistant Staphylococcus aureus Mu50 assessed as microbial growth at 50 uM in presence of penicillin G at 4 ug/ml by checkerboard assay; format: functional, organism-based
Staphylococcus aureus [32] = experiment: Antibacterial activity against methicillin-resistant Staphylococcus aureus USA 300 assessed as enhancement factor at 50 uM in presence of vancomycin (reference value: 2 ug/ml); format: functional
Staphylococcus aureus [33] = experiment: Suppression of oxacillin-induced mecA gene transcription in vancomycin-intermediate resistant Staphylococcus aureus Mu50 assessed as decrease in mecA transcript level by RT-qPCR analysis; format: functional, organism-based
Staphylococcus aureus [34] = experiment: Antibacterial activity against vancomycin-intermediate resistant Staphylococcus aureus Mu50 assessed as enhancement factor at 50 uM in presence of Chloramphenicol (reference value: 16 ug/ml); format: functional
Staphylococcus aureus [35] = experiment: Antibacterial activity against methicillin-resistant Staphylococcus aureus USA 300 assessed as enhancement factor at 50 uM in presence of Chloramphenicol (reference value: 2 ug/ml); format: functional
Staphylococcus aureus [36] = experiment: Antibacterial activity against methicillin-resistant Staphylococcus aureus BAA-1683 assessed as enhancement factor at 50 uM in presence of vancomycin (reference value: 2 ug/ml); format: functional
Staphylococcus aureus [37] = experiment: Suppression of oxacillin-induced vraSR gene transcription in vancomycin-intermediate resistant Staphylococcus aureus Mu50 assessed as decrease in vraSR transcript level by RT-qPCR analysis; format: functional, organism-based
Staphylococcus aureus [38] = experiment: Suppression of vancomycin-induced pbp2 gene transcription in vancomycin-intermediate resistant Staphylococcus aureus Mu50 assessed as decrease in pbp2 transcript level by RT-qPCR analysis; format: functional, organism-based
Staphylococcus aureus [39] = experiment: Antibacterial activity against methicillin-resistant Staphylococcus aureus USA 300 assessed as fold reduction at 50 uM in presence of Chloramphenicol; format: functional
[40] = target: T2, Sensor protein VraS (Staphylococcus aureus (strain N315)) (UniProt Q99SZ7); experiment: Inhibition of GST tagged VraS ATPase activity in vancomycin-intermediate resistant Staphylococcus aureus assessed as residual activity at 0.1 to 300 uM by kinase-coupled assay relative to control; details: dose 0.1-300 µM
T2 sequence (whole entry): T1 sequence (Q99SZ7 whole entry)

Cc1ccnc(C(NC(=O)Nc2ccc3c(c2)OCC(=O)N3C)C2CC2)c1 (stereo not given)
MIC (Staphylococcus aureus [1]): 256 µg/mL | MIC (Staphylococcus aureus [2]): 4 µg/mL

Cc1ccnc(C(NC(=O)Nc2ccc3nnn(C)c3c2)C2CC2)c1 (stereo not given)
MIC (Staphylococcus aureus [1]): 256 µg/mL | MIC (Staphylococcus aureus [2]): 4 µg/mL

CCSc1nc2ccc(NC(=O)NC(c3cc(C)ccn3)C3CC3)cc2o1 (stereo not given)
Activity (Staphylococcus aureus [3]): Active | Activity (Staphylococcus aureus [4]): Active | MIC (Staphylococcus aureus [5]): < 2 µg/mL | MIC (Staphylococcus aureus [1]): 8 µg/mL | MIC (Staphylococcus aureus [6]): < 2 µg/mL | MIC (Staphylococcus aureus [7]): < 2 µg/mL | fold change (FC) (Staphylococcus aureus [8]): 4 | MIC (Staphylococcus aureus [9]): 4 µg/mL | fold change (FC) (Staphylococcus aureus [10]): ~4 | MIC (Staphylococcus aureus [11]): < 0.25 µg/mL | Activity (Staphylococcus aureus [12]): Active | MIC (Staphylococcus aureus [13]): 0.5 µg/mL | fold change (FC) (Staphylococcus aureus [14]): 2 | MIC (Staphylococcus aureus [15]): < 0.25 µg/mL | Activity (Staphylococcus aureus [16]): Active | IC50 (Sensor protein VraS): 940 nM | MIC (Staphylococcus aureus [17]): 16 µg/mL | MIC (Staphylococcus aureus [18]): < 2 µg/mL | fractional inhibitory concentration index (FICI) (Staphylococcus aureus [19]): <0.12 | MIC (Staphylococcus aureus [20]): 128 µg/mL | MIC (Staphylococcus aureus [21]): 0.25 µg/mL | fractional inhibitory concentration index (FICI) (Staphylococcus aureus [22]): <=0.31 | Activity (Staphylococcus aureus [23]): Active | fold change (FC) (Staphylococcus aureus [24]): 32 | fold change (FC) (Staphylococcus aureus [25]): 16 | MIC (Staphylococcus aureus [26]): < 2 µg/mL | fractional inhibitory concentration index (FICI) (Staphylococcus aureus [27]): <=0.31 | fold change (FC) (Staphylococcus aureus [28]): 16 | IC50 at 24 h [29]: > 100000 nM | fold change (FC) (Staphylococcus aureus [30]): 4 | Activity (Staphylococcus aureus [31]): Active | MIC (Staphylococcus aureus [2]): 0.25 µg/mL | MIC (Staphylococcus aureus [32]): 0.5 µg/mL | Activity (Staphylococcus aureus [33]): Active | MIC (Staphylococcus aureus [34]): 16 µg/mL | MIC (Staphylococcus aureus [35]): 0.25 µg/mL | MIC (Staphylococcus aureus [36]): 0.5 µg/mL | Activity (Staphylococcus aureus [37]): Active | Activity (Staphylococcus aureus [38]): Active | fold change (FC) (Staphylococcus aureus [39]): 4 | Activity [40]: 35%
